Drawing on patent US20260062422A1 (Halda Therapeutics OpCo, Inc., priority 2022, published 2026), this text covers GI50 for 20 compounds.

For test [1], the system named is T-Rex 293 cell line SC3 cells having increased expression of androgen receptor protein due to exposure to doxycycline. The test is described as follows: Cellular growth inhibition, T-Rex 293 SC3 cells with doxycycline (androgen receptor induced), CellTiter-Glo. The format is cell-based. To be noted: T-Rex 293 SC3 cells with 10 ng/mL doxycycline (increased androgen receptor expression). The gist of the method: (§1)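 SC3 is a T-Rex 293 clone stably transfected with wild-type androgen receptor in pcDNA4/TO, inducible by 10 ng/mL doxycycline. Cells were grown in phenol red-free DMEM with 10% charcoal-dextran FBS, with or without doxycycline, dosed 24 h after seeding (0.5% DMSO) for 72 h. Viability was read by CellTiter-Glo 2.0 luminescence and GI50 obtained from four-parameter fits.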
(In ATP-based viability assays light output follows the ATP content of the culture.)

For test [2], the system named is T-Rex 293 cell line SC3 cells lacking increased expression of androgen receptor protein. The test is described as follows: Cellular growth inhibition, T-Rex 293 SC3 cells without doxycycline, CellTiter-Glo. Format: cell-based. Particulars: T-Rex 293 SC3 cells not exposed to doxycycline, CellTiter-Glo 2.0. Put shortly: as §1
In another test the test system is VCaP cells. The test is described as follows: Cellular growth inhibition assay for VCaP cells, CellTiter-Glo. To be noted: 72 hours treatment, CellTiter-Glo 2.0. Format: cell-based, human. The gist of the method:
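GI50 values come from four-parameter curve fits of luminescence data normalized to a zero baseline. Compound, in medium with 0.5% DMSO, was added one day after plating and left for 72 h before CellTiter-Glo 2.0 addition.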

The next test relates to T47D cells. The test is described as follows: Cellular growth inhibition assay for T47D cells, CellTiter-Glo. The format is cell-based, human. To be noted: 72 hours treatment, CellTiter-Glo 2.0 cell viability. The gist of the method:
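Cells are plated at 3000/well and allowed 24 h before treatment. Test compound in medium containing 0.5% DMSO is then added, with DMSO-only wells as negative control, and plates are incubated 72 h at 37 °C. ATP luminescence (CellTiter-Glo 2.0) is then fitted to four parameters to derive GI50.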

The GI50 is the concentration that inhibits growth by half. A higher GI50 goes with less potent growth inhibition. `Cc1sc2c(c1C)C(c1ccc(C3CC(C4CCN(c5ncc(C(=O)N[C@H]6C(C)(C)[C@H](Oc7ccc(C#N)c(Cl)c7)C6(C)C)cn5)CC4)C3)cc1)=NC(C)c1nnc(C)n1-2` (some centres unmarked) [Compound I-466]: the GI50 is < 500 nM in test [1] (72 hours), > 3000 nM in test [2] (72 hours), > 3000 nM in the test on VCaP cells and < 500 nM in the test with T47D cells.
Turning to `Cc1sc2c(c1C)C(c1ccc(C3CC(C4CCN(c5ncc(C(=O)N[C@H]6C(C)(C)[C@H](Oc7ccc(C#N)c(Cl)c7)C6(C)C)cn5)CC4)C3)cc1)=NC(C)c1nnc(C)n1-2` (some centres unmarked) [Compound I-467], the 50% growth inhibitory concentration (GI50) in test [1] (72 hours) is < 500 nM; in test [2] (72 hours), > 3000 nM; in the test on VCaP cells it was < 500 nM; in the test with T47D cells, < 500 nM.
Consider `Cc1sc2c(c1C)C(c1ccc(C3CC(C4CCN(c5ncc(C(=O)N[C@H]6C(C)(C)[C@H](Oc7ccc(C#N)c(Cl)c7)C6(C)C)cn5)CC4)C3)cc1)=NC(C)c1nnc(C)n1-2` (some centres unmarked) [Compound I-468], for which the GI50 is < 500 nM in test [1] (72 hours), > 3000 nM in test [2] (72 hours), < 500 nM in the test on VCaP cells and < 500 nM in the test on T47D cells.
As for `Cc1sc2c(c1C)C(c1ccc(C3CC(C4CCN(c5cnc(C(=O)N[C@H]6C(C)(C)[C@H](Oc7ccc(C#N)c(Cl)c7)C6(C)C)cn5)CC4)C3)cc1)=NC(C)c1nnc(C)n1-2` (some centres unmarked) [Compound I-469], the 50% growth inhibitory concentration (GI50) in test [1] (72 hours) was < 500 nM; in test [2] (72 hours), 500 to 1500 nM; with VCaP cells, < 500 nM; with T47D cells (Homo sapiens, T47D, 72 h), < 500 nM.
For `Cc1sc2c(c1C)C(c1ccc(C3CC(C4CCN(c5cnc(C(=O)N[C@H]6C(C)(C)[C@H](Oc7ccc(C#N)c(Cl)c7)C6(C)C)cn5)CC4)C3)cc1)=NC(C)c1nnc(C)n1-2` (some centres unmarked) [Compound I-470], the GI50 in test [1] (72 hours) is < 500 nM; in test [2] (72 hours), > 3000 nM; in the test on VCaP cells, < 500 nM; in the test on T47D cells, 500 to 1500 nM.
In the case of `Cc1sc2c(c1C)C(c1ccc(C3CC(C4CCN(c5cnc(C(=O)N[C@H]6C(C)(C)[C@H](Oc7ccc(C#N)c(Cl)c7)C6(C)C)cn5)CC4)C3)cc1)=NC(C)c1nnc(C)n1-2` (some centres unmarked) [Compound I-471], the GI50 is 500 to 1500 nM in test [1] (72 hours), > 3000 nM in test [2] (72 hours), > 3000 nM in the test with VCaP cells and < 500 nM in the test on T47D cells.
As for `Cc1sc2c(c1C)C(c1ccc(C3CC(C4CCN(c5cnc(C(=O)N[C@H]6C(C)(C)[C@H](Oc7ccc(C#N)c(Cl)c7)C6(C)C)cn5)CC4)C3)cc1)=NC(C)c1nnc(C)n1-2` (some centres unmarked) [Compound I-472], the GI50 was > 3000 nM in test [1] (72 hours), > 3000 nM in test [2] (72 hours), > 3000 nM in the test on VCaP cells and < 500 nM in the test on T47D cells.
As for `Cc1sc2c(c1C)C(c1ccc(N3CC(C4CCCN(c5ncc(C(=O)N[C@H]6C(C)(C)[C@H](Oc7ccc(C#N)c(Cl)c7)C6(C)C)cn5)C4)C3)cc1)=N[C@@H](C)c1nnc(C)n1-2` (some centres unmarked) [Compound I-473], the GI50 in test [1] (72 h) is < 500 nM; in test [2] (72 hours), > 3000 nM; in the test with VCaP cells (Homo sapiens, VCaP, 72 h), > 3000 nM; in the test on T47D cells, > 3000 nM.
On to `Cc1sc2c(c1C)C(c1ccc(N3CC(C4CCCN(c5ncc(C(=O)N[C@H]6C(C)(C)[C@H](Oc7ccc(C#N)c(Cl)c7)C6(C)C)cn5)C4)C3)cc1)=N[C@@H](C)c1nnc(C)n1-2` (some centres unmarked) [Compound I-474], for which the 50% growth inhibitory concentration (GI50) in test [1] (72 hours) was < 500 nM; in test [2] (72 hours) it was 500 to 1500 nM; in the test with VCaP cells, > 3000 nM; in the test on T47D cells it was < 500 nM.
On to `Cc1sc2c(c1C)C(c1ccc(C3CC(N4CCN(c5ncc(C(=O)N[C@H]6C(C)(C)[C@H](Oc7ccc(C#N)c(Cl)c7)C6(C)C)cn5)CC4)C3)cc1)=N[C@@H](Cc1ncco1)c1nnc(C)n1-2` (some centres unmarked) [Compound I-475], for which the 50% growth inhibitory concentration (GI50) was < 500 nM in test [1] (72 h); 500 to 1500 nM in test [2] (72 h); < 500 nM with VCaP cells (Homo sapiens, VCaP, 72 h); < 500 nM in the test with T47D cells (Homo sapiens, T47D, 72 h).
As for `Cc1sc2c(c1C)C(c1ccc(C3CC(CC4CN(c5ncc(C(=O)N[C@H]6C(C)(C)[C@H](Oc7ccc(C#N)c(Cl)c7)C6(C)C)cn5)C4)C3)cc1)=NC(Cc1ncco1)c1nnc(C)n1-2` (some centres unmarked) [Compound I-476], the GI50 in test [1] (72 h) was < 500 nM; in test [2] (72 h), < 500 nM; in the test with VCaP cells (Homo sapiens, VCaP, 72 h), < 500 nM; with T47D cells (Homo sapiens, T47D, 72 h), < 500 nM.
For the compound `Cc1sc2c(c1C)C(c1ccc(C3CC(CC4CN(c5ncc(C(=O)N[C@H]6C(C)(C)[C@H](Oc7ccc(C#N)c(Cl)c7)C6(C)C)cn5)C4)C3)cc1)=NC(Cc1ncco1)c1nnc(C)n1-2` (some centres unmarked) [Compound I-477], the 50% growth inhibitory concentration (GI50) (in test [1] (72 hours); in test [2] (72 hours); with VCaP cells; in the test on T47D cells) was < 500 nM throughout.
For the compound `Cc1sc2c(c1C)C(c1ccc(N3CCC(CCc4cnc(C(=O)N[C@H]5C(C)(C)[C@H](Oc6ccc(C#N)c(Cl)c6)C5(C)C)cn4)CC3)cc1)=N[C@@H](Cc1ncco1)c1nnc(C)n1-2` [Compound I-478], the GI50 in test [1] (72 h) was < 500 nM; in test [2] (72 h), 500 to 1500 nM; in the test on VCaP cells (Homo sapiens, VCaP, 72 h), < 500 nM; in the test on T47D cells (Homo sapiens, T47D, 72 h), 500 to 1500 nM.
As to `Cc1sc2c(c1C)C(c1ccc(C(C)(C)CN3CC4(CCCN(c5ncc(C(=O)NC6C(C)(C)C(Oc7ccc(C#N)c(Cl)c7)C6(C)C)cn5)C4)C3)cc1)=N[C@@H](Cc1ncco1)c1nnc(C)n1-2` (some centres unmarked) [Compound I-479], the concentration for 50% growth inhibition (GI50) was < 500 nM in test [1] (72 h); 500 to 1500 nM in test [2] (72 h); < 500 nM in the test with VCaP cells (Homo sapiens, VCaP, 72 h); 500 to 1500 nM with T47D cells (Homo sapiens, T47D, 72 h).
In the case of `Cc1sc2c(c1C)C(c1ccc(-c3cc(C4CCN(c5ncc(C(=O)N[C@H]6C(C)(C)[C@H](Oc7ccc(C#N)c(Cl)c7)C6(C)C)cn5)CC4)cs3)cc1)=N[C@@H](Cc1ncco1)c1nnc(C)n1-2` [Compound I-480], the 50% growth inhibitory concentration (GI50) was < 500 nM in test [1] (72 h); > 3000 nM in test [2] (72 h); < 500 nM in the test with VCaP cells (Homo sapiens, VCaP, 72 h); > 3000 nM in the test with T47D cells (Homo sapiens, T47D, 72 h).
In the case of `Cc1sc2c(c1C)C(c1ccc(C(F)(F)N3CC4(CCN(c5ncc(C(=O)N[C@H]6C(C)(C)[C@H](Oc7ccc(C#N)c(Cl)c7)C6(C)C)cn5)CC4)C3)cc1)=N[C@@H](Cc1ncco1)c1nnc(C)n1-2` [Compound I-504], the 50% growth inhibitory concentration (GI50) in test [1] (72 h) is < 500 nM; in test [2] (72 h), > 3000 nM; in the test with VCaP cells (Homo sapiens, VCaP, 72 h) it was < 500 nM; in the test with T47D cells (Homo sapiens, T47D, 72 h), < 500 nM.
Take `Cc1sc2c(c1C)C(c1ccc(N3CC(CC4CN(c5ncc(C(=O)N[C@H]6C(C)(C)[C@H](Oc7ccc(C#N)c(Cl)c7)C6(C)C)cn5)C4)C3)cc1)=N[C@@H](C)c1nnc(C)n1-2` [Compound I-514]: the 50% growth inhibitory concentration (GI50) was < 500 nM in test [1] (72 h); > 3000 nM in test [2] (72 h); > 3000 nM in the test with VCaP cells (Homo sapiens, VCaP, 72 h); 500 to 1500 nM in the test on T47D cells (Homo sapiens, T47D, 72 h).
Take `Cc1sc2c(c1C)C(c1ccc(C3(C4CC5(CCN(c6ncc(C(=O)N[C@H]7C(C)(C)[C@H](Oc8ccc(C#N)c(Cl)c8)C7(C)C)cn6)CC5)C4)CC3)cc1)=N[C@@H](Cc1ncco1)c1nnc(C)n1-2` [Compound I-525]: the GI50 in test [1] (72 h) was < 500 nM; in test [2] (72 h), > 3000 nM; in the test with VCaP cells (Homo sapiens, VCaP, 72 h), < 500 nM; with T47D cells (Homo sapiens, T47D, 72 h), < 500 nM.
As for `Cc1sc2c(c1C)C(c1ccc(CC3CC4(CCN(c5cnc(C(=O)N[C@H]6C(C)(C)[C@H](Oc7ccc(C#N)c(Cl)c7)C6(C)C)cn5)CC4)C3)cc1)=N[C@@H](Cc1ncco1)c1nnc(C)n1-2` [Compound I-547], the GI50 was < 500 nM in test [1] (72 h); < 500 nM in test [2] (72 h); > 3000 nM in the test on VCaP cells (Homo sapiens, VCaP, 72 h); < 500 nM in the test on T47D cells (Homo sapiens, T47D, 72 h).
`Cc1sc2c(c1C)C(c1ccc(CC3CC4(CCN(c5ccc(C(=O)N[C@H]6C(C)(C)[C@H](Oc7ccc(C#N)c(Cl)c7)C6(C)C)cn5)CC4)C3)cc1)=N[C@@H](Cc1ncco1)c1nnc(C)n1-2` [Compound I-548]: the concentration for 50% growth inhibition (GI50) in test [1] (72 h) was < 500 nM; in test [2] (72 h), < 500 nM; with VCaP cells (Homo sapiens, VCaP, 72 h) it was 500 to 1500 nM; in the test with T47D cells (Homo sapiens, T47D, 72 h) it was < 500 nM.
